The values that follow come from US8158186B2, “2-methylthioethyl-substituted heterocycles as feed additives” (Evonik Degussa GmbH, priority 2007, dated 2012).

Where two headings read alike, the source gives them in different places.

For series [1] the following is noted: cited from earlier work.
For series [2] the following is noted: European Commission report, 25 Apr. 2003; cited from earlier work.
Setting [3] is: published in WO 00/28835, ruminants.

On to `CSCCC1OC2(CCCCC2)NC1=O` (centres unmarked) [compound 14, 2-(2-(methylthio)ethyl)-1-oxa-4-azaspiro[4.5]decan-3-one], for which the melting point was determined as 109 °C.
`CSCCC(O)C(=O)OC(C)C` (centres unmarked) [HMBi]: the biological value entry in series [1] (published in EP 1358805, HMBi applied to a porous carrier, compared with the at least 50% of WO 00/28835) was “comparable”; in series [1] (setting [3]), “at least 50%”. The “HMBi absorbed through the rumen wall” value in series [2] is reported as “approximately 50%”.
For `CSCCC1OC(c2ccccc2)NC1=O` (centres unmarked) [compound 12, 5-(2-(methylthio)ethyl)-2-phenyloxazolidin-4-one], the melting point was determined as 130 °C.
In turn, `CSCCC1OC(C)(C)NC1=O` (centres unmarked) [compound 10, 2,2-dimethyl-5-(2-(methylthio)ethyl)oxazolidin-4-one] displayed a melting point of 84 °C.
`CCC1(C)NC(=O)C(CCSC)O1` (centres unmarked) [compound 13, 2-ethyl-2-methyl-5-(2-(methylthio)ethyl)oxazolidin-4-one]: the melting point worked out at 62 °C.
Consider `CSCCC(N)C(=O)OC(C)(C)C` (racemic) [D,L-tert-butylmethionine, reference compound], for which the biological value in series [1] (setting [3]) was 80%.
